Measured values published in ChEMBL document CHEMBL3885881, “DrugMatrix”.

Species: Rattus norvegicus
Test: DrugMatrix - Regimen: Daily Repeat
Assay type: toxicity, organism-based, Sprague-Dawley
Design: regimen Daily Repeat, gender Male, age 6-8 weeks
Details: in vivo, sc, route subcutaneous, […]; for ABSOLUTE BASOPHIL / ABSOLUTE EOSINOPHIL / ABSOLUTE LYMPHOCYTE / ABSOLUTE MONOCYTE / ABSOLUTE SEGMENTED NEUTROPHIL / BASOPHIL / EOSINOPHIL / ERYTHROCYTE COUNT / HEMATOCRIT / HEMOGLOBIN / LEUKOCYTE COUNT / LYMPHOCYTE / MEAN CORPUSCULAR HEMOGLOBIN / MEAN CORPUSCULAR HEMOGLOBIN CONCENTRATION / MEAN CORPUSCULAR VOLUME / MONOCYTE / NEUTROPHIL / NUCLEATED RED BLOOD CELLS / PLATELET COUNT: tissue Blood; for ALANINE AMINOTRANSFERASE / ALBUMIN / ALKALINE PHOSPHATASE / ASPARTATE AMINOTRANSFERASE / BLOOD UREA NITROGEN / CARBON DIOXIDE / CHLORIDE / CHOLESTEROL / CREATINE PHOSPHOKINASE / CREATININE / GLUCOSE / LACTATE DEHYDROGENASE / LIPASE / PHOSPHORUS / POTASSIUM / SODIUM / TOTAL BILIRUBIN / TOTAL PROTEIN / URIC ACID: tissue Plasma
[1] = 0 mg/kg, 72 h, dose level Control, time 3 day
[2] = 0 mg/kg, 120 h, dose level Control, time 5 day
[3] = 18 mg/kg, 72 h, dose level High, time 3 day

CN(C)c1ccc(C(=C2C=CC(=[N+](C)C)C=C2)c2ccc(N(C)C)cc2)cc1.[Cl-] [GENTIAN VIOLET]
ABSOLUTE BASOPHIL [1]: 0 CELLS/uL
ABSOLUTE EOSINOPHIL [1]: 92.33 CELLS/uL
ABSOLUTE LYMPHOCYTE [1]: 12247.5 CELLS/uL
ABSOLUTE MONOCYTE [1]: 389.67 CELLS/uL
ABSOLUTE SEGMENTED NEUTROPHIL [1]: 1320.5 CELLS/uL
BASOPHIL [1]: 0%
EOSINOPHIL [1]: 0.67%
ERYTHROCYTE COUNT [1]: 5.45 x10E6/uL
HEMATOCRIT [1]: 34.85%
HEMOGLOBIN [1]: 12.97 G/DL
LEUKOCYTE COUNT [1]: 14.05 x10E3/uL
LYMPHOCYTE [1]: 87.33%
MEAN CORPUSCULAR HEMOGLOBIN [1]: 23.78 pg
MEAN CORPUSCULAR HEMOGLOBIN CONCENTRATION [1]: 37.22 G/DL
MEAN CORPUSCULAR VOLUME [1]: 63.93 fL
MONOCYTE [1]: 2.67%
NEUTROPHIL [1]: 9.33%
NUCLEATED RED BLOOD CELLS [1]: 0 /100WBC
PLATELET COUNT [1]: 1174 x10E3/uL
ALANINE AMINOTRANSFERASE [1]: 48.83 u/L
ALBUMIN [1]: 4.23 G/DL
ALKALINE PHOSPHATASE [1]: 351.5 u/L
ASPARTATE AMINOTRANSFERASE [1]: 90 u/L
BLOOD UREA NITROGEN [1]: 15.33 mg/dL
CARBON DIOXIDE [1]: 23 mmol/L
CHLORIDE [1]: 103.5 MEQ/L
CHOLESTEROL [1]: 70.5 mg/dL
CREATINE PHOSPHOKINASE [1]: 651.83 u/L
CREATININE [1]: 0.22 mg/dL
GLUCOSE [1]: 180.67 mg/dL
LACTATE DEHYDROGENASE [1]: 165 u/L
LIPASE [1]: 9.33 u/L
PHOSPHORUS [1]: 12.03 mg/dL
POTASSIUM [1]: 6.17 MEQ/L
SODIUM [1]: 142.62 MEQ/L
TOTAL BILIRUBIN [1]: 0.2 mg/dL
TOTAL PROTEIN [1]: 5.73 G/DL
URIC ACID [1]: 1.77 mg/dL
ABSOLUTE BASOPHIL [2]: 0 CELLS/uL
ABSOLUTE EOSINOPHIL [2]: 0 CELLS/uL
ABSOLUTE LYMPHOCYTE [2]: 12736.67 CELLS/uL
ABSOLUTE MONOCYTE [2]: 253.5 CELLS/uL
ABSOLUTE SEGMENTED NEUTROPHIL [2]: 1193.17 CELLS/uL
BASOPHIL [2]: 0%
EOSINOPHIL [2]: 0%
ERYTHROCYTE COUNT [2]: 5.72 x10E6/uL
HEMATOCRIT [2]: 36.05%
HEMOGLOBIN [2]: 13.62 G/DL
LEUKOCYTE COUNT [2]: 14.18 x10E3/uL
LYMPHOCYTE [2]: 89.33%
MEAN CORPUSCULAR HEMOGLOBIN [2]: 23.83 pg
MEAN CORPUSCULAR HEMOGLOBIN CONCENTRATION [2]: 37.8 G/DL
MEAN CORPUSCULAR VOLUME [2]: 63.05 fL
MONOCYTE [2]: 1.83%
NEUTROPHIL [2]: 8.83%
NUCLEATED RED BLOOD CELLS [2]: 0 /100WBC
PLATELET COUNT [2]: 1322.17 x10E3/uL
ALANINE AMINOTRANSFERASE [2]: 48.83 u/L
ALBUMIN [2]: 4.27 G/DL
ALKALINE PHOSPHATASE [2]: 295.17 u/L
ASPARTATE AMINOTRANSFERASE [2]: 75.83 u/L
BLOOD UREA NITROGEN [2]: 15.5 mg/dL
CARBON DIOXIDE [2]: 30.5 mmol/L
CHLORIDE [2]: 102.33 MEQ/L
CHOLESTEROL [2]: 76.17 mg/dL
CREATINE PHOSPHOKINASE [2]: 205.5 u/L
CREATININE [2]: 0.2 mg/dL
GLUCOSE [2]: 149.67 mg/dL
LACTATE DEHYDROGENASE [2]: 124.5 u/L
LIPASE [2]: 10 u/L
PHOSPHORUS [2]: 10.93 mg/dL
POTASSIUM [2]: 6.59 MEQ/L
SODIUM [2]: 143.1 MEQ/L
TOTAL BILIRUBIN [2]: 0.2 mg/dL
TOTAL PROTEIN [2]: 6.05 G/DL
URIC ACID [2]: 1.45 mg/dL
ABSOLUTE BASOPHIL [3]: 0 CELLS/uL
ABSOLUTE EOSINOPHIL [3]: 0 CELLS/uL
ABSOLUTE LYMPHOCYTE [3]: 12052.33 CELLS/uL
ABSOLUTE MONOCYTE [3]: 236.33 CELLS/uL
ABSOLUTE SEGMENTED NEUTROPHIL [3]: 1544.67 CELLS/uL
BASOPHIL [3]: 0%
EOSINOPHIL [3]: 0%
ERYTHROCYTE COUNT [3]: 5.45 x10E6/uL
HEMATOCRIT [3]: 33.5%
HEMOGLOBIN [3]: 12.27 G/DL
LEUKOCYTE COUNT [3]: 13.83 x10E3/uL
LYMPHOCYTE [3]: 87%
MEAN CORPUSCULAR HEMOGLOBIN [3]: 22.5 pg
MEAN CORPUSCULAR HEMOGLOBIN CONCENTRATION [3]: 36.67 G/DL
MEAN CORPUSCULAR VOLUME [3]: 61.5 fL
MONOCYTE [3]: 1.67%
NEUTROPHIL [3]: 11.33%
NUCLEATED RED BLOOD CELLS [3]: 0 /100WBC
PLATELET COUNT [3]: 1084 x10E3/uL
ALANINE AMINOTRANSFERASE [3]: 34.67 u/L
ALBUMIN [3]: 2.67 G/DL
ALKALINE PHOSPHATASE [3]: 220 u/L
ASPARTATE AMINOTRANSFERASE [3]: 68.67 u/L
BLOOD UREA NITROGEN [3]: 12 mg/dL
CARBON DIOXIDE [3]: 19 mmol/L
CHLORIDE [3]: 103.5 MEQ/L
CHOLESTEROL [3]: 66.33 mg/dL
CREATINE PHOSPHOKINASE [3]: 157.33 u/L
CREATININE [3]: 0.17 mg/dL
GLUCOSE [3]: 122.33 mg/dL
LACTATE DEHYDROGENASE [3]: 148 u/L
LIPASE [3]: 7.33 u/L
PHOSPHORUS [3]: 8.5 mg/dL
POTASSIUM [3]: 6.06 MEQ/L
SODIUM [3]: 145.95 MEQ/L
TOTAL BILIRUBIN [3]: 0.13 mg/dL
TOTAL PROTEIN [3]: 4.7 G/DL
URIC ACID [3]: 1.1 mg/dL
